Measurements published in patent US20240122212A1 (SUNTORY HOLDINGS LIMITED, priority 2020, published 2024).

Target: T1, sweet taste receptor (T1R2/T1R3) (Homo sapiens, UniProt Q7RTX0+Q8TE23)
T1 construct: endogenous in cells; host or cells: taste cells in the mouths of 3 trained human panelists (in vivo spitting test)
T1 sequence (Q8TE23 20-839): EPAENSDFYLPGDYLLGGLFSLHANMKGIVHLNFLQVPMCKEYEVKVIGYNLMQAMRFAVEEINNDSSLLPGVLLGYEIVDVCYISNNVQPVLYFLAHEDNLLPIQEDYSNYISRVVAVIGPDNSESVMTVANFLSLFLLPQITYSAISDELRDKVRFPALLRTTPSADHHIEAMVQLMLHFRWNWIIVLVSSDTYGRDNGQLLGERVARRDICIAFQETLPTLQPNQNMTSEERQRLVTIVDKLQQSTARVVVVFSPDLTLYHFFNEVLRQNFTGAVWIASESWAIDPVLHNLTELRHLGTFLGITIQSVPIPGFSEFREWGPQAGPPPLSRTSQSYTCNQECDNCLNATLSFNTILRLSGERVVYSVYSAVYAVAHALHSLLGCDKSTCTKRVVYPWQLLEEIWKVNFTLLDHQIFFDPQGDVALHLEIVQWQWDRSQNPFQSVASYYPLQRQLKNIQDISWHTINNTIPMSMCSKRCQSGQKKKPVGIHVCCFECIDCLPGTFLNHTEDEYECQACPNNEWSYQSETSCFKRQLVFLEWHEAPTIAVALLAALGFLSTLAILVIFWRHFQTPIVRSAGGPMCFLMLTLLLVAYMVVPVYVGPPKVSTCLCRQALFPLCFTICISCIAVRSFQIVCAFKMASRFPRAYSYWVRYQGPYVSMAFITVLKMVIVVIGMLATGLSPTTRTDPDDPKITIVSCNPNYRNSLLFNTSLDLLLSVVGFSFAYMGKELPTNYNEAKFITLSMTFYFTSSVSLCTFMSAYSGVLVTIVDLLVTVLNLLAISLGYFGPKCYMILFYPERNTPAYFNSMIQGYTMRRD
T1 sequence (Q7RTX0 21-852): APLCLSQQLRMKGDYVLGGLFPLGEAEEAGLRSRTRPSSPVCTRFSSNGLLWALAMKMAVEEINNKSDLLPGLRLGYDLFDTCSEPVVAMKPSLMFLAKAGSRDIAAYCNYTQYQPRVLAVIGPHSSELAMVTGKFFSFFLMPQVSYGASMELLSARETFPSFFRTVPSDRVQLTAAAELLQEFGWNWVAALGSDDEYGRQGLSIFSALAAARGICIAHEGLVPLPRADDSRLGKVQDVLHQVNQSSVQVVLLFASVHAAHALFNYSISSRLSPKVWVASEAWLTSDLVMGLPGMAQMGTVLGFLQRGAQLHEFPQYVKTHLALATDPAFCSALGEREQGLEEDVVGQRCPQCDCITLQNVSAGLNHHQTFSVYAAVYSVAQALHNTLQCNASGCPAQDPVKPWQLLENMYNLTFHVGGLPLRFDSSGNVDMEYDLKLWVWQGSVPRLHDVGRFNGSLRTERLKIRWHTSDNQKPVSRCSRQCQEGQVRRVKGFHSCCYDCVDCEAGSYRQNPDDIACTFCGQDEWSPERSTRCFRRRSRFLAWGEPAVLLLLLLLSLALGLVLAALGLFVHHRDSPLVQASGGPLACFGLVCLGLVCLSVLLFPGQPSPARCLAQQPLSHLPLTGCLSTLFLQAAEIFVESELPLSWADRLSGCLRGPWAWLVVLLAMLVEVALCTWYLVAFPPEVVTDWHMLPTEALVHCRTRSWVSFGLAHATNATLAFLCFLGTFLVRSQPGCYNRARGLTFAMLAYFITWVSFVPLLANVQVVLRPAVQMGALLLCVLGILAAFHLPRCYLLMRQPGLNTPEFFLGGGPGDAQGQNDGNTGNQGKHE
Assay: Sensory evaluation of sweetness intensity (VAS) in the co-presence of sweet taste receptor inhibitor lactisole (Example 5)
Type: in vivo
From the text: Whether or not a certain sweet substance can trigger a sweetness response even if a sweetness response through the sweet taste receptor T1R2/T1R3 is inhibited may be determined by, for instance, measuring, by sensory evaluation or cell assay, the sweetness intensity of a solution (control solution), in which only the above sweet substance has been dissolved, and the sweetness intensity (remaining sweetness intensity) of a solution (test solution), in which a sweet taste receptor T1R2/T1R3 inhibitor (e.g., lactisole, gymnemic acid) is added for inhibiting a sweetness response through the sweet taste receptor T1R2/T1R3 to the control solution; and by comparing the sweetness intensity of the control solution and the sweetness intensity of the test solution.
The evaluation was carried out by those (3 persons) who received sensory trainings as panelists. […] Additionally, solutions having the same composition as sample solutions 1, 2, 3, and 4 except that lactisole was not added were used as control solutions 1, 2, 3, and 4. The sensory evaluation was carried out by spitting test. The sweetness intensity was rated by the VAS scale and calculated with the intensity of a solution to which lactisole was not added being 100% and the sweetness intensity of a solution to which lactisole was added as a relative value (%). The sweetness inhibitory effect by lactisole was verified by this.

remaining sweetness intensity when 100 ppm of lactisole was added, compared with sucrose (100 ppm lactisole): equal to or more than that of sucrose
Sweetness intensity residual ratio (%) with addition of 100 ppm lactisole (lactisole-free solution = 100%, sucrose 8 w/v %, sucralose 149 ppm, D- or L-arabinose 13.3 w/v %, VAS, average of n=3): 42.47%
Structure (SMILES): O=C[C@@H](O)[C@H](O)[C@H](O)CO [D-Arabinose]
